Measurements as given in article PMC10385416, “Iron-Gallic Acid Peptide Nanoparticles as a Versatile Platform for Cellular Delivery with Synergistic ROS Enhancement Effect” (Pharmaceutics, 2023).
Ends that are not written are not given here. Peptide text beside a SMILES is read from it.

Key:
[1] = Methylene blue assay of HO• production (Fenton reaction); conditions: pH 4, H2O2, same Fe content (36 µg Fe3+), UV-Vis every 5 min over 6 h
Experimental: MB assays were used to measure the HO^• production efficacy of IGPNs. IGPNs (36 µg Fe^3+) were mixed with MB (1.5 mL, 10 µg L^−1) and H2O2 (1 mL), and H2O was added to a final volume of 3 mL. The absorbance at 664 nm was recorded with a Cary 3500 UV–Vis Spectrophotometer every 5 min over 6 h.
To verify the hypothesized Fenton reaction of IGPNs, H2O2 was used as a source of hydroxyl radicals (HO^•) and to simulate the tumor microenvironment. The generation of HO^• and degradation of methylene blue (MB) upon exposure to H2O2 and different samples adjusted to the same Fe content (IGPNs or FeCl3 solution) was monitored by UV–Vis spectrometry. At pH 4 (Figure 7A), the decrease of absorbance at 664 nm was accelerated in the presence of Fe-A4**, FePVP-A4**, or Fe^3+. At the favorable acidic pH, no differences in reaction rates were observed between IGPNs and Fe^3+, since the content of Fe^3+ is obviously sufficient to drive the reaction under these conditions. In contrast, at pH 7.4, the absorbance decline was clearly more pronounced in case of IGPNs (Figure 7B). This phenomenon could be explained by an accelerated conversion of Fe^3+ to Fe^2+ in the presence of GA.

HeLa cells = assay: Cell viability (CellTiter-Glo assay), HeLa; format: cell-based, human; conditions: 10 μM, 72 h
Experimental: The CellTiter-Glo® Luminescent Cell Viability Assay was performed to determine the viability of HeLa or N2a cells after treatment with IGPNs or the individual components. One day prior to the treatments, HeLa or N2a cells were seeded into 96-well plates at a density of 5000 cells/well. On the next day, the medium in each well was replaced with 90 μL of fresh medium, and 10 μL of nanoparticles or control solutions (free peptides, Fe, FePVP) was added to each well corresponding to the specified final concentrations of the peptide or Fe^3+, respectively. The supernatant was removed after 72 h incubation, and 25 µL of medium as well as 25 µL of CellTiter-Glo reagent were added to each well. The plate was gently agitated for 30 min at RT, and the luminescence signal (relative light units, RLU) was recorded by a Centro LB 960 plate reader luminometer (Berthold Technologies, Bad Wildbad, Germany). The relative cell viability (in percentage) was calculated relative to control wells treated with HBG buffer as ([RLU] test/[RLU] control) × 100%. All experiments were performed in triplicate.

Compound	decrease of methylene blue absorbance at 664 nm (HO• generation) at pH 4 [1]	cytotoxicity / tolerability in words (HeLa cells)
O.O.O.O.O.O.[Cl-].[Cl-].[Cl-].[Fe+3] [Fe^3+, iron (III) chloride hexahydrate]	accelerated	–
AVPIAQK [AVP]	–	not able to mediate significant cytotoxicity
NCCCC[C@H](NC(=O)[C@@H]1CCCN1C(=O)[C@@H](N)CCC(N)=O)C(=O)O [SIO] (H-Gln-Pro-Lys-OH)	–	not able to mediate significant cytotoxicity
